Source: ChEMBL document CHEMBL5321264, “Proteomic Changes in Methicillin-Resistant Staphylococcus aureus Exposed to Cannabinoids” (2023)
Converted amounts (≈) assume the structure as drawn. The source made the active and inactive calls. The rule behind the calls is not given here.

Legend:
Staphylococcus aureus [1] = assay: Downregulation of phosphoglycerate kinase expression in methicillin-resistant Staphylococcus aureus CC398 in the presence of methicillin by gene ontology analysis; assay type: functional
Staphylococcus aureus [2] = assay: Antibacterial activity against methicillin-resistant Staphylococcus aureus CC398 assessed as inhibition of bacterial growth at higher concentration incubated for 15 hrs by real-time microscopic analysis; assay type: functional, organism-based
Staphylococcus aureus [3] = assay: Upregulation of ATP synthase subunit alpha expression in methicillin-resistant Staphylococcus aureus CC398 in the presence of methicillin by gene ontology analysis; assay type: functional
Staphylococcus aureus [4] = assay: Bactericidal activity against methicillin-resistant Staphylococcus aureus CC398 assessed as reduction in bacterial viability measured after 15 hrs by real-time microscopic analysis; assay type: functional
Staphylococcus aureus [5] = assay: Antibacterial activity against methicillin-resistant Staphylococcus aureus CC398 assessed as increase in cell density at 2.5 microg/ml measured after 15 hrs by real-time microscopic analysis relative to control; assay type: functional; conditions: dose 2.5 µg/ml
Staphylococcus aureus [6] = assay: Upregulation of enolase expression in methicillin-resistant Staphylococcus aureus CC398 by gene ontology analysis; assay type: functional
Staphylococcus aureus [7] = assay: Potentiation of methicillin-induced antibacterial activity against methicillin-resistant Staphylococcus aureus CC398 assessed as ratio of methicillin MBC to MIC at 2.5 microg/ml; assay type: functional; conditions: dose 2.5 µg/ml
Staphylococcus aureus [8] = assay: Downregulation of Carbamoyl-phosphate synthase small chain expression in methicillin-resistant Staphylococcus aureus CC398 in the presence of methicillin by gene ontology analysis; assay type: functional
Staphylococcus aureus [9] = assay: Downregulation of pyruvate kinase expression in methicillin-resistant Staphylococcus aureus CC398 in the presence of methicillin by gene ontology analysis; assay type: functional
Staphylococcus aureus [10] = assay: Upregulation of ATP synthase subunit B expression in methicillin-resistant Staphylococcus aureus CC398 in the presence of methicillin by gene ontology analysis; assay type: functional
Staphylococcus aureus [11] = assay: Antibacterial activity against methicillin-resistant Staphylococcus aureus CC398 assessed as reduction in bacterial growth measured after 4 hrs by real-time microscopic analysis; assay type: functional
Staphylococcus aureus [12] = assay: Potentiation of methicillin-induced antibacterial activity against methicillin-resistant Staphylococcus aureus CC398 assessed as methicillin MBC at 2.5 microg/ml; assay type: functional; conditions: dose 2.5 µg/ml
Staphylococcus aureus [13] = assay: Upregulation of ATP-dependent protease ATPase subunit […] expression in methicillin-resistant Staphylococcus aureus CC398 in the presence of methicillin by gene ontology analysis; assay type: functional
Staphylococcus aureus [14] = assay: Potentiation of methicillin-induced antibacterial activity against methicillin-resistant Staphylococcus aureus CC398 assessed as reduction in methicillin MIC at 2.5 microg/ml relative to control; assay type: functional; set-up: scale not given: the % may be the effect or the level left; conditions: dose 2.5 µg/ml
Staphylococcus aureus [15] = assay: Upregulation of ATP synthase subunit beta expression in methicillin-resistant Staphylococcus aureus CC398 in the presence of methicillin by gene ontology analysis; assay type: functional
Staphylococcus aureus [16] = assay: Downregulation of cysteine synthase expression in methicillin-resistant Staphylococcus aureus CC398 in the presence of methicillin by gene ontology analysis; assay type: functional
Staphylococcus aureus [17] = assay: Downregulation of serine hydroxy methyltransferase expression in methicillin-resistant Staphylococcus aureus CC398 in the presence of methicillin by gene ontology analysis; assay type: functional
Staphylococcus aureus [18] = assay: Downregulation of aminoacyl-tRNA-synthetase expression in methicillin-resistant Staphylococcus aureus CC398 in the presence of methicillin by gene ontology analysis; assay type: functional
Staphylococcus aureus [19] = assay: Downregulation of superoxide dismutase expression in methicillin-resistant Staphylococcus aureus CC398 in the presence of methicillin by gene ontology analysis; assay type: functional
Staphylococcus aureus [20] = assay: Upregulation of GrpE protein expression in methicillin-resistant Staphylococcus aureus CC398 in the presence of methicillin by gene ontology analysis; assay type: functional
Staphylococcus aureus [21] = assay: Downregulation of Threonine synthase expression in methicillin-resistant Staphylococcus aureus CC398 in the presence of methicillin by gene ontology analysis; assay type: functional
[22] = Selectivity ratio of MBC for bactericidal activity against methicillin-resistant Staphylococcus aureus CC398 to MIC for antibacterial activity against methicillin-resistant Staphylococcus aureus CC398; assay type: functional
Staphylococcus aureus [23] = assay: Potentiation of methicillin-induced antibacterial activity against methicillin-resistant Staphylococcus aureus CC398 assessed as methicillin MIC at 2.5 microg/ml; assay type: functional; conditions: dose 2.5 µg/ml
Staphylococcus aureus [24] = assay: Upregulation of PBP2 protein expression in methicilin-resistant Staphylococcus aureus CC398 in the presence of methicillin by gene ontology analysis; assay type: functional
Staphylococcus aureus [25] = assay: Antibacterial activity against methicillin-resistant Staphylococcus aureus CC398 assessed as inhibition of bacterial growth at lower concentration incubated for 15 hrs by real-time microscopic analysis; assay type: functional, organism-based
Staphylococcus aureus [26] = assay: Downregulation of catalase expression in methicillin-resistant Staphylococcus aureus CC398 in the presence of methicillin by gene ontology analysis; assay type: functional
Staphylococcus aureus [27] = assay: Upregulation of elongation factor P expression in methicillin-resistant Staphylococcus aureus CC398 in the presence of methicillin by gene ontology analysis; assay type: functional
Staphylococcus aureus [28] = assay: Antibacterial activity against methicillin-resistant Staphylococcus aureus CC398 assessed as increase in cell density at 1.25 microg/ml by real-time microscopic analysis relative to control; assay type: functional; conditions: dose 1.25 µg/ml; time 15 hrs
Staphylococcus aureus [29] = assay: Upregulation of peptide chain release factor 1 expression in methicillin-resistant Staphylococcus aureus CC398 in the presence of methicillin; assay type: functional
Staphylococcus aureus [30] = assay: Downregulation of succinate-CoA synthase expression in methicillin-resistant Staphylococcus aureus CC398 in the presence of methicillin by gene ontology analysis; assay type: functional
Staphylococcus aureus [31] = assay: Upregulation of GTP-binding protein typeA expression in methicillin-resistant Staphylococcus aureus CC398 in the presence of methicillin by gene ontology analysis; assay type: functional
Staphylococcus aureus [32] = assay: Upregulation of proline-tRNA ligase expression in methicillin-resistant Staphylococcus aureus CC398 in the presence of methicillin by gene ontology analysis; assay type: functional
Staphylococcus aureus [33] = assay: Downregulation of isocitrate dehydrogenase expression in methicillin-resistant Staphylococcus aureus CC398 in the presence of methicillin by gene ontology analysis; assay type: functional
Staphylococcus aureus [34] = assay: Upregulation of PBP2 protein expression in Staphylococcus aureus CC398 by gene ontology analysis; assay type: functional
Staphylococcus aureus [35] = assay: Upregulation of ATP synthase subunit alpha expression in Staphylococcus aureus CC398 by gene ontology analysis; assay type: functional
Staphylococcus aureus [36] = assay: Upregulation of ATP synthase subunit b expression in Staphylococcus aureus CC398 by gene ontology analysis; assay type: functional
Staphylococcus aureus [37] = assay: Antibacterial activity against methicillin-resistant Staphylococcus aureus CC398 assessed as increase in cell density at 1 microg/ml measured after 15 hrs by real-time microscopic analysis relative to control; assay type: functional; conditions: dose 1 µg/ml
Staphylococcus aureus [38] = assay: Upregulation of ATP synthase subunit beta expression in Staphylococcus aureus CC398 by gene ontology analysis; assay type: functional
Staphylococcus aureus [39] = assay: Antibacterial activity against methicillin-resistant Staphylococcus aureus CC398 assessed as increase in cell growth rate by measuring maximal response at 1 microg/ml after 15 hrs by real-time microscopic analysis relative to control; assay type: functional; conditions: dose 1 µg/ml
Staphylococcus aureus [40] = assay: Downregulation of elongation factor Tu expression in methicillin-resistant Staphylococcus aureus CC398 in the presence of methicillin by gene ontology analysis; assay type: functional
Staphylococcus aureus [41] = assay: Downregulation of isoleucine-tRNA-synthetase expression in methicillin-resistant Staphylococcus aureus CC398 in the presence of methicillin by gene ontology analysis; assay type: functional
Staphylococcus aureus [42] = assay: Upregulation of SepF expression in Staphylococcus aureus CC398 in the presence of methicillin by gene ontology analysis; assay type: functional
Staphylococcus aureus [43] = assay: Downregulation of valine-tRNA-synthetase expression in methicillin-resistant Staphylococcus aureus CC398 in the presence of methicillin by gene ontology analysis; assay type: functional
Staphylococcus aureus [44] = assay: Downregulation of elongation factor G expression in methicillin-resistant Staphylococcus aureus CC398 in the presence of methicillin by gene ontology analysis; assay type: functional
Staphylococcus aureus [45] = assay: Downregulation of fructose-1,6-bisphosphate aldolase expression in methicillin-resistant Staphylococcus aureus CC398 in the presence of methicillin by gene ontology analysis; assay type: functional
Staphylococcus aureus [46] = assay: Downregulation of 2,3-bisphosphoglycerate-independent phosphoglycerate mutase expression in methicillin-resistant Staphylococcus aureus CC398 in the presence of methicillin by gene ontology analysis; assay type: functional
Staphylococcus aureus [47] = assay: Potentiation of methicillin-induced antibacterial activity against methicillin-resistant Staphylococcus aureus CC398 assessed as methicillin MBC at 7.5 microg/ml; assay type: functional; conditions: dose 7.5 µg/ml
Staphylococcus aureus [48] = assay: Potentiation of methicillin-induced antibacterial activity against methicillin-resistant Staphylococcus aureus CC398 assessed as methicillin MIC at 7.5 microg/ml; assay type: functional; conditions: dose 7.5 µg/ml
Staphylococcus aureus [49] = assay: Downregulation of arginine-tRNA-synthetase expression in methicillin-resistant Staphylococcus aureus CC398 in the presence of methicillin by gene ontology analysis; assay type: functional
Staphylococcus aureus [50] = assay: Potentiation of methicillin-induced antibacterial activity against methicillin-resistant Staphylococcus aureus CC398 assessed as ratio of methicillin MBC to MIC at 7.5 microg/ml; assay type: functional; conditions: dose 7.5 µg/ml
Staphylococcus aureus [51] = assay: Upregulation of DNA-directed RNA polymerase subunit omega expression in Staphylococcus aureus CC398 in the presence of methicillin by gene ontology analysis; assay type: functional
Staphylococcus aureus [52] = assay: Antibacterial activity against methicillin-resistant Staphylococcus aureus CC398 assessed as increase in cell density at 5 microg/ml measured after 15 hrs by real-time microscopic analysis relative to control; assay type: functional; conditions: dose 5 µg/ml

Row | SMILES | Activity (Staphylococcus aureus [1]) | Activity (Staphylococcus aureus [2]) | Activity (Staphylococcus aureus [3]) | MBC (Staphylococcus aureus [4]) | Activity (Staphylococcus aureus [6]) | Ratio (Staphylococcus aureus [7]) | Activity (Staphylococcus aureus [9]) | Activity (Staphylococcus aureus [10]) | MIC (Staphylococcus aureus [11]) | MIC (Staphylococcus aureus [12]) | Activity (Staphylococcus aureus [14]) | Activity (Staphylococcus aureus [15]) | Activity (Staphylococcus aureus [19]) | Activity (Staphylococcus aureus [20]) | Ratio [22] | MBC (Staphylococcus aureus [23]) | Activity (Staphylococcus aureus [25]) | Activity (Staphylococcus aureus [26]) | other results
1 | CCCCCc1cc(O)c2c(c1)OC(C)(C)c1ccc(C)cc1-2 [CANNABINOL] | Active | Active | Active | 7.5 µg/mL (≈ 24.2 µM) | Active | 16 | Active | Active | 2.5 µg/mL (≈ 8.05 µM) | 0.063 µg/mL | 87.5% | Active | Active | Active | 3 | 1 µg/mL | inactive | Active | Activity (Staphylococcus aureus [5]): 29%; Activity (Staphylococcus aureus [8]): Active; Activity (Staphylococcus aureus [13]): Active; Activity (Staphylococcus aureus [16]): Active; Activity (Staphylococcus aureus [17]): Active; Activity (Staphylococcus aureus [18]): Active; Activity (Staphylococcus aureus [21]): Active; Activity (Staphylococcus aureus [24]): Active
2 | C=C(C)[C@@H]1CCC(C)=C[C@H]1c1c(O)cc(CCCCC)cc1O [CANNABIDIOL] | Active | Active | Active | 5 µg/mL (≈ 15.9 µM) | Active | 16 |  | Active | 2.5 µg/mL (≈ 7.95 µM) | 0.063 µg/mL | 87.5% | Active | Active |  | 2 | 1 µg/mL | inactive | Active | Activity (Staphylococcus aureus [27]): Active; Activity (Staphylococcus aureus [28]): 19%; Activity (Staphylococcus aureus [29]): Active; Activity (Staphylococcus aureus [30]): Active; Activity (Staphylococcus aureus [31]): Active; Activity (Staphylococcus aureus [32]): Active; Activity (Staphylococcus aureus [33]): Active
3 | COc1cccc(OC)c1C(=O)N[C@@H]1C(=O)N2[C@@H]1SC(C)(C)[C@@H]2C(=O)O [METHICILLIN] |  |  |  | 8 µg/mL (≈ 21 µM) |  |  |  |  | 4 µg/mL (≈ 10.5 µM) |  |  |  |  |  |  |  |  |  | Activity (Staphylococcus aureus [34]): Active; Activity (Staphylococcus aureus [35]): Active; Activity (Staphylococcus aureus [36]): Active; Activity (Staphylococcus aureus [37]): 43%; Activity (Staphylococcus aureus [38]): Active; Activity (Staphylococcus aureus [39]): 143%
4 | CCCCCc1cc(O)c2c(c1)OC(C)(C)[C@@H]1CCC(C)=C[C@@H]21 [DRONABINOL] | Active | Active | Active | 20 µg/mL (≈ 63.6 µM) | Active |  | Active | Active | 7.5 µg/mL (≈ 23.8 µM) |  | 93.8% | Active | Active | Active | 2.67 |  | inactive |  | Activity (Staphylococcus aureus [40]): Active; Activity (Staphylococcus aureus [41]): Active; Activity (Staphylococcus aureus [42]): Active; Activity (Staphylococcus aureus [43]): Active; Activity (Staphylococcus aureus [44]): Active; Activity (Staphylococcus aureus [45]): Active; Activity (Staphylococcus aureus [46]): Active; MBC (Staphylococcus aureus [47]): 0.5 µg/mL; MIC (Staphylococcus aureus [48]): 0.063 µg/mL; Activity (Staphylococcus aureus [49]): Active; Ratio (Staphylococcus aureus [50]): 8; Activity (Staphylococcus aureus [51]): Active; Activity (Staphylococcus aureus [52]): 45%
